In US20120157471A1, “BENZIMIDAZOLE DERIVATIVES” (PFIZER INC., priority 2009, published 2012):
Structures can show the parent of a compound that is named as a salt.

Biological target: T1, human Smo (amino acids 181-787) (Homo sapiens, UniProt Q99835)
T1 construct: expressed in transfected cells; membrane preparation
Assay: Smo radioligand competition binding assay (displacement of 3H-PF-03451358 from HEK293 membranes)
Conditions: for inhibition at 0.05 µM: 0.05 μM test compound, displacement of 3H-PF-03451358, read-out: SMO % inh. @ 0.05 μM; for IC50: radioligand competition binding
Method: Membranes were prepared from a stable cell line created in HEK293FlpIn-TetR cells (Invitrogen) using FIp recombinase-mediated insertion of the pSecTag-FRT/V5-His vector containing a cDNA encoding amino acids 181-787 of human Smo fused to the murine lgk leader sequence to produce a cell surface expressed Smo 181-781 protein. Hygromycin-resistant clones were obtained and stained for LacZ expression (no expression indicates a correct knock-in of my fusion cDNA). LacZ-negative cells were analyzed for binding tritiated Smo antagonist PF-03451358. For membrane preparation, the HEK293 cells expressing Smo 181-781 were grown to 90% confluence in nine to fifteen 245 mm×245 mm×22 mm dishes, washed with Dulbecco's PBS (15 ml per dish) and harvested via scraping in 10 ml of DPBS. The cells were collected and centrifuged at 1500 rpm (400×g) for 10 min at 4° C. The cell pellets were re-suspended in 40 ml of cold DPBS and washed by centrifugation at 2300 rpm (950×g max) for 10 minutes at 4° C. The supernatant was aspirated and the cell pellet was snap frozen in a methanol/dry ice bath and stored at −70° C. For membrane preparation, 15 ml of Membrane Preparation Buffer (50 mM Tris-HCl pH 7.5, 250 mM sucrose with Roche complete protease cocktail tablets) is added to the tube containing the cell pellet, then cells are rapidly thawed, and homogenized using an Ultra-Turrax T8 (IKA Labortechnik) set on “6” for 15 seconds for 5-6 times in icy water bath. This homogenate was diluted up to 50 ml using Membrane Preparation Buffer and centrifuged at 35,000 rpm in a Beckman Ti45 rotor (140,000×g) for 35 minutes at 4° C. followed by aspiration of the supernatant and re-suspension of the pellet in 5 ml of Assay Buffer (50 mM Tris-HCl pH 7.5, 100 mM NaCl, 25 mM MgCl2, 1 mM EDTA, and 0.1% protease free bovine serum albumin). The re-suspended pellet is then homogenized in a glass tissue grinder. The re-suspended membranes are aliquoted (0.5 ml aliquots), snap frozen and stored at −70° C. Total protein in the membrane preparation is determined using the Pierce BCA protein assay (Pierce Chemical).
For the binding competition assay, 100 μl of Assay Buffer is added to all the wells of a 96 well GF/B filter plate (Millipore MultiScreen-HTS-FB cat# MSFBN6B50) for 10 minutes to pre-wet the filter prior to evacuation of the buffer (8 inches Hg for 8 seconds). To the pre-wet wells is added: 20 μl of Assay Buffer, 10 μl diluted test agent, 20 μl of ^3H-PF-3451358 (15 nM stock solution), and 50 μl of membrane preparation (40 μg total protein per well). The plates are sealed and mixed at room temperature for 5 min, incubated at room temperature for 2 hours, then washed 5 times with 100 μl/each of wash buffer and vacuum dried for 8 seconds at 8 inch Hg. The plate is then dried for one hour in a 60° C. oven prior to the addition of 45 μl of Microscint 20 (Packard, #6013621) to each well and incubation at RT for 30 minutes to 1 hour. The plate is counted in a TopCount scintillation counter (Perkin Elmer).
Data analysis uses Excel for % Inhibition and Graphpad Prism for IC50 calculation. Total binding (TB, in the absence of inhibitors)=average of ^3H PF-03451358 3 nM+SMO membrane (40 μg/wells (approx 5000-7000 CPM). Non-specific binding (NSB)=average of ^3H PF-03451358 (3 nM)+cold PF-03451358 (30 μM)+SMO membrane (approx 600-1200 CPM). Specific binding (SB)=(total binding−non-specific binding). % Inhibition=[1−(compound Specific binding/control Specific binding)]×100%. IC50 is calculated by fitting the data to the four parameter sigmoidal dose-response curve (variable slope) Y=Bottom+(Top-Bottom)/(1+10̂((LogEC50−X)*HillSlope)). X is the logarithm of the inhibitor concentration. Y is the response; Y starts at Bottom and goes to Top with a sigmoid shape.

T1 sequence (Q99835 181-787): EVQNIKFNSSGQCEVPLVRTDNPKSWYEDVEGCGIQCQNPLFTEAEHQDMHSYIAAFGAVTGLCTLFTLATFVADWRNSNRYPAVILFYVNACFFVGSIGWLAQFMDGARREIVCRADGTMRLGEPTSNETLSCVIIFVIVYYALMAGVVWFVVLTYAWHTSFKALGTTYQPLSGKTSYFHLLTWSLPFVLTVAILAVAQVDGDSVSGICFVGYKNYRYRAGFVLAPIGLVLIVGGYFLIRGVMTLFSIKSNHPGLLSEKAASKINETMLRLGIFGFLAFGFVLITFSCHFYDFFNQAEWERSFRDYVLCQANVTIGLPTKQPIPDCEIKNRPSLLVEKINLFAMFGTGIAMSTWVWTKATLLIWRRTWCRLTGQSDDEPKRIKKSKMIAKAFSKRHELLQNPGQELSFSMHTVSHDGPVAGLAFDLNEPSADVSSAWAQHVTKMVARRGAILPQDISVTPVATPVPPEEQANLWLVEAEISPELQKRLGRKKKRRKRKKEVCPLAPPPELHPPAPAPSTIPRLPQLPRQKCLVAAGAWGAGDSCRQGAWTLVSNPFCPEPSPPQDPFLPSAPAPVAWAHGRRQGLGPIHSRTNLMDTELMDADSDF

SMILES | inhibition at 0.05 µM [%] | IC50 [nM]
Cn1c(-c2cc(N3CCC(S(C)(=O)=O)CC3)ncc2Cl)nc2cccnc21 [Example A-37, 2-{5-chloro-2-[4-(methylsulfonyl)piperidin-1-yl]pyridin-4-yl}-3-methyl-3H-imidazo[4,5-b]pyridine] | 67 | 247
Cn1c(-c2cc(N3CCC(O)(c4ncccn4)C3)ncc2Cl)nc2ccccc21 (stereo not drawn) [Example A-140, 1-[5-chloro-4-(1-methyl-1H-benzimidazol-2-yl)pyridin-2-yl]-3-pyrimidin-2-ylpyrrolidin-3-ol] | 42 | –
COC1CCN(c2cc(-c3nc4cccnc4n3C)c(Cl)cn2)CC1 [Example A-38, 2-[5-chloro-2-(4-methoxypiperidin-1-yl)pyridin-4-yl]-3-methyl-3H-imidazo[4,5-b]pyridine] | 51 | 463
CN(CCN)c1cc(-c2nc3ccccc3n2C)c(Cl)cn1 [Example A-184, N-[5-chloro-4-(1-methyl-1H-benzimidazol-2-yl)pyridin-2-yl]-N-methylethane-1,2-diamine] | 50 | 342
Cc1nccn1CC1(O)CCN(c2cc(-c3nc4ccccc4n3C)c(Cl)cn2)C1 (stereo not drawn) [Example A-135, 1-[5-chloro-4-(1-methyl-1H-benzimidazol-2-yl)pyridin-2-yl]-3-[(2-methyl-1H-imidazol-1-yl)methyl]pyrrolidin-3-ol] | 46 | –
Cn1c(-c2nc(N3CCNCC3)ccc2Cl)nc2ccccc21 [Example B-1, 2-(3-chloro-6-piperazin-1-ylpyridin-2-yl)-1-methyl-1H-benzimidazole formate salt] | 59 | –
CN1CCN(C2COCCN(c3cc(-c4nc5ccccc5n4C)c(Cl)cn3)C2)CC1 (stereo not drawn) [Example A-137, 2-{5-chloro-2-[6-(4-methylpiperazin-1-yl)-1,4-oxazepan-4-yl]pyridin-4-yl}-1-methyl-1H-benzimidazole] | 45 | –
Cn1c(-c2cc(N3CCC(C(=O)O)CC3)ncc2Cl)nc2ccccc21 [Example A-7, 1-[5-chloro-4-(1-methyl-1H-benzimidazol-2-yl)pyridin-2-yl]piperidine-4-carboxylic acid] | 39 | –
CC(=O)N1CCN(c2nccc(-c3nc4ccccc4n3C)n2)CC1 [Example C-2, 2-[2-(4-Acetylpiperazin-1-yl)pyrimidin-4-yl]-1-methyl-1H-benzimidazole] | 65 | 447
Cn1c(-c2cc(N3CC(c4ncc[nH]4)C3)ncc2Cl)nc2ccccc21 [Example A-133, 2-{5-chloro-2-[3-(1H-imidazol-2-yl)azetidin-1-yl]pyridin-4-yl}-1-methyl-1H-benzimidazole] | 48 | –
Cn1c(-c2ccnc(N3CCN(S(C)(=O)=O)CC3)n2)nc2ccccc21 [Example C-4, 1-Methyl-2-{2-[4-(methylsulfonyl)piperazin-1-yl]pyrimidin-4-yl}-1H-benzimidazole] | 45 | –
Cn1c(-c2cc(N3CCC(O)(CN4CCCC4=O)C3)ncc2Cl)nc2ccccc21 (stereo not drawn) [Example A-136, 1-({1-[5-chloro-4-(1-methyl-1H-benzimidazol-2-yl)pyridin-2-yl]-3-hydroxypyrrolidin-3-yl}methyl)pyrrolidin-2-one] | 46 | –
Cn1cnnc1C1CCCN(c2cc(-c3nc4ccccc4n3C)c(Cl)cn2)C1 (stereo not drawn) [Example A-138, 2-{5-chloro-2-[3-(4-methyl-4H-1,2,4-triazol-3-yl)piperidin-1-yl]pyridin-4-yl}-1-methyl-1H-benzimidazole] | 45 | –
Cn1c(-c2cc(NCCS(C)(=O)=O)ncc2Cl)nc2ccccc21 [Example A-167, 5-chloro-4-(1-methyl-1H-benzimidazol-2-yl)-N-[2-(methylsulfonyl)ethyl]pyridin-2-amine] | 64 | 287
CC(=O)N1CCN(c2cc(-c3nc4cccnc4n3C)c(Cl)cn2)CC1 [Example A-40, 2-[2-(4-acetylpiperazin-1-yl)-5-chloropyridin-4-yl]-3-methyl-3H-imidazo[4,5-b]pyridine] | 66 | 158
